What was measured:
Format in all cases: functional
[1] = system: NCI-H460; assay: Growth inhibition of human NCI-H460 cells after 48 hrs by sulforhodamine B assay; conditions: NCI-H460, 48 h
[2] = system: SK-OV-3; assay: Growth inhibition of human SKOV3 cells after 48 hrs by sulforhodamine B assay; conditions: SK-OV-3, 48 h
[3] = Growth inhibition of human OVCAR5 cells after 48 hrs by sulforhodamine B assay; conditions: OVCAR-5, 48 h
[4] = system: NCI-H322M; assay: Growth inhibition of human NCI-H322M cells after 48 hrs by sulforhodamine B assay
[5] = system: 786-0; assay: Growth inhibition of human 786-0 cells after 48 hrs by sulforhodamine B assay; conditions: 786-0, 48 h
[6] = system: MOLT-4; assay: Growth inhibition of human MOLT4 cells after 48 hrs by sulforhodamine B assay; conditions: MOLT-4, 48 h
[7] = system: HL-60(TB); assay: Growth inhibition of human HL-60(TB) cells after 48 hrs by sulforhodamine B assay; conditions: HL-60, 48 h
[8] = system: MDA-MB-468; assay: Growth inhibition of human MDA-MB-468 cells after 48 hrs by sulforhodamine B assay; conditions: MDA-MB-468, 48 h
[9] = system: IGROV-1; assay: Growth inhibition of human IGROV1 cells after 48 hrs by sulforhodamine B assay; conditions: IGROV-1, 48 h
[10] = Growth inhibition of human SF539 cells after 48 hrs by sulforhodamine B assay; conditions: SF-539, 48 h
[11] = Growth inhibition of human NCI-ADR-RES cells after 48 hrs by sulforhodamine B assay
[12] = system: UACC-62; assay: Growth inhibition of human UACC62 cells after 48 hrs by sulforhodamine B assay; conditions: UACC-62, 48 h
[13] = system: CCRF-CEM; assay: Growth inhibition of human CCRF-CEM cells after 48 hrs by sulforhodamine B assay
[14] = system: MDA-MB-231; assay: Growth inhibition of human MDA-MB-231 cells after 48 hrs by sulforhodamine B assay; conditions: MDA-MB-231, 48 h
[15] = Growth inhibition of human HCC2998 cells after 48 hrs by sulforhodamine B assay; conditions: HCC 2998, 48 h
[16] = system: OVCAR-8; assay: Growth inhibition of human OVCAR8 cells after 48 hrs by sulforhodamine B assay; conditions: OVCAR-8, 48 h
[17] = system: A549; assay: Growth inhibition of human A549/ATCC cells after 48 hrs by sulforhodamine B assay; conditions: A549, 48 h
[18] = system: HCT-116; assay: Growth inhibition of human HCT116 cells after 48 hrs by sulforhodamine B assay; conditions: HCT-116, 48 h
[19] = Growth inhibition of human RXF393 cells after 48 hrs by sulforhodamine B assay; conditions: RXF 393, 48 h
[20] = system: PC-3; assay: Growth inhibition of human PC3 cells after 48 hrs by sulforhodamine B assay; conditions: PC-3, 48 h
[21] = system: OVCAR-3; assay: Growth inhibition of human OVCAR3 cells after 48 hrs by sulforhodamine B assay; conditions: OVCAR-3, 48 h
[22] = system: NCI-H522; assay: Growth inhibition of human NCI-H522 cells after 48 hrs by sulforhodamine B assay; conditions: NCI-H522, 48 h
[23] = system: CAKI-1; assay: Growth inhibition of human CAKI-1 cells after 48 hrs by sulforhodamine B assay; conditions: CAKI-1, 48 h
[24] = system: MCF7; assay: Growth inhibition of human MCF7 cells after 48 hrs by sulforhodamine B assay; conditions: MCF7, 48 h
[25] = Growth inhibition of human UACC257 cells after 48 hrs by sulforhodamine B assay; conditions: UACC-257, 48 h
[26] = system: M14; assay: Growth inhibition of human M14 cells after 48 hrs by sulforhodamine B assay; conditions: M14, 48 h
[27] = system: MDA-MB-435; assay: Growth inhibition of human MDA-MB-435 cells after 48 hrs by sulforhodamine B assay; conditions: MDA-MB-435, 48 h
[28] = Growth inhibition of human UO31 cells after 48 hrs by sulforhodamine B assay; conditions: UO-31, 48 h
[29] = system: COLO 205; assay: Growth inhibition of human COLO205 cells after 48 hrs by sulforhodamine B assay; conditions: COLO 205, 48 h
[30] = system: HCT-15; assay: Growth inhibition of human HCT15 cells after 48 hrs by sulforhodamine B assay; conditions: HCT-15, 48 h
[31] = system: KM12; assay: Growth inhibition of human KM12 cells after 48 hrs by sulforhodamine B assay; conditions: KM12, 48 h
[32] = system: HOP-62; assay: Growth inhibition of human HOP62 cells after 48 hrs by sulforhodamine B assay; conditions: HOP-62, 48 h
[33] = system: SK-MEL-28; assay: Growth inhibition of human SK-MEL-28 cells after 48 hrs by sulforhodamine B assay; conditions: SK-MEL-28, 48 h
[34] = system: SW-620; assay: Growth inhibition of human SW620 cells after 48 hrs by sulforhodamine B assay; conditions: SW-620, 48 h
[35] = system: BT-549; assay: Growth inhibition of human BT549 cells after 48 hrs by sulforhodamine B assay; conditions: BT-549, 48 h
[36] = Growth inhibition of human Hs 578T cells after 48 hrs by sulforhodamine B assay
[37] = system: SNB-75; assay: Growth inhibition of human SNB75 cells after 48 hrs by sulforhodamine B assay; conditions: SNB-75, 48 h
[38] = system: DU-145; assay: Growth inhibition of human DU145 cells after 48 hrs by sulforhodamine B assay; conditions: DU-145, 48 h
[39] = system: HT-29; assay: Growth inhibition of human HT-29 cells after 48 hrs by sulforhodamine B assay; conditions: HT-29, 48 h
[40] = system: NCI-H226; assay: Growth inhibition of human NCI-H226 cells after 48 hrs by sulforhodamine B assay; conditions: NCI-H226, 48 h
[41] = system: A498; assay: Growth inhibition of human A498 cells after 48 hrs by sulforhodamine B assay; conditions: A498, 48 h
[42] = system: ACHN; assay: Growth inhibition of human ACHN cells after 48 hrs by sulforhodamine B assay
[43] = system: RPMI-8226; assay: Growth inhibition of human RPMI8226 cells after 48 hrs by sulforhodamine B assay; conditions: RPMI-8226, 48 h
[44] = system: Paracentrotus lividus; assay: Antimitotic activity in sea urchin fertilized egg assessed as cleavage arrest treated at 8 to 20 mins post-fertilization measured at 2.5 to 5.5 hrs post-fertilization
[45] = system: SF-268; assay: Growth inhibition of human SF268 cells after 48 hrs by sulforhodamine B assay; conditions: SF-268, 48 h
[46] = system: SK-MEL-5; assay: Growth inhibition of human SK-MEL-5 cells after 48 hrs by sulforhodamine B assay; conditions: SK-MEL-5, 48 h
[47] = system: SF-295; assay: Growth inhibition of human SF295 cells after 48 hrs by sulforhodamine B assay; conditions: SF-295, 48 h
[48] = system: Paracentrotus lividus; assay: Antimitotic activity in sea urchin fertilized egg assessed as cleavage alteration treated at 8 to 20 mins post-fertilization measured at 2.5 to 5.5 hrs post-fertilization
[49] = system: SN12C; assay: Growth inhibition of human SN12C cells after 48 hrs by sulforhodamine B assay
[50] = Growth inhibition of human OVCAR4 cells after 48 hrs by sulforhodamine B assay; conditions: OVCAR-4, 48 h
[51] = system: NCI-H23; assay: Growth inhibition of human NCI-H23 cells after 48 hrs by sulforhodamine B assay; conditions: NCI-H23, 48 h
[52] = system: Malme-3M; assay: Growth inhibition of human MALME-3M cells after 48 hrs by sulforhodamine B assay
[53] = system: SR; assay: Growth inhibition of human SR cells after 48 hrs by sulforhodamine B assay
[54] = system: SNB-19; assay: Growth inhibition of human SNB19 cells after 48 hrs by sulforhodamine B assay; conditions: SNB-19, 48 h
[55] = system: T47D; assay: Growth inhibition of human T47D cells after 48 hrs by sulforhodamine B assay
[56] = system: Paracentrotus lividus; assay: Microtubule destabilizing activity in sea urchin free-swimming blastula assessed as embryo spinning treated at 9 to 10 hrs post-fertilization measured after 0.15 to 15 hrs
[57] = system: K562; assay: Growth inhibition of human K562 cells after 48 hrs by sulforhodamine B assay; conditions: K562, 48 h
[58] = system: TK-10; assay: Growth inhibition of human TK10 cells after 48 hrs by sulforhodamine B assay; conditions: TK-10, 48 h

## COc1ccc(-c2noc(N)c2-c2cc(OC)c3c(c2)OCO3)cc1
[1]
  GI50: 2870 nM
[2]
  GI50: 3410 nM
[3]
  GI50: 5010 nM
[4]
  GI50: 6660 nM
[5]
  GI50: 5460 nM
[6]
  GI50: 1280 nM
[7]
  GI50: 1290 nM
[8]
  GI50: 9660 nM
[9]
  GI50: 4860 nM
[10]
  GI50: 1690 nM
[11]
  GI50: 563 nM
[12]
  GI50: 5100 nM
[13]
  GI50: 1020 nM
[14]
  GI50: 2350 nM
[15]
  GI50: 1960 nM
[16]
  GI50: 3620 nM
[17]
  GI50: 2730 nM
[18]
  GI50: 2440 nM
[19]
  GI50: 2360 nM
[20]
  GI50: 3290 nM
[21]
  GI50: 2630 nM
[22]
  GI50: 1020 nM
[23]
  GI50: 2780 nM
[24]
  GI50: 798 nM
[25]
  GI50: 6680 nM
[26]
  GI50: 1300 nM
[27]
  GI50: 237 nM
[28]
  GI50: 5900 nM
[29]
  GI50: 1850 nM
[30]
  GI50: 620 nM
[31]
  GI50: 1580 nM
[32]
  GI50: 2850 nM
[33]
  GI50: 6790 nM
[34]
  GI50: 726 nM
[35]
  GI50: 3400 nM
[36]
  GI50: 2810 nM
[37]
  GI50: 1810 nM
[38]
  GI50: 3110 nM
[39]
  GI50: 1330 nM
[40]
  GI50: 13700 nM
[41]
  GI50: 1310 nM
[42]
  GI50: 6210 nM
[43]
  GI50: 2910 nM
[44]
  EC: 2 µM
[45]
  GI50: 5000 nM
[46]
  GI50: 3360 nM
[47]
  GI50: 2800 nM
[48]
  EC: 0.2 µM
[49]
  GI50: 4100 nM
[50]
  GI50: 22800 nM
[51]
  GI50: 2820 nM
[52]
  GI50: 9660 nM
[53]
  GI50: 454 nM
[54]
  GI50: 20400 nM
[55]
  GI50: 2750 nM
[56]
  EC: >5 µM
[57]
  GI50: 404 nM
[58]
  GI50: 6360 nM

Reference: ChEMBL document CHEMBL3112491, “3-(5-)-Amino-o-diarylisoxazoles: regioselective synthesis and antitubulin activity” (2014)
